Measurements taken from article PMC5862592, “CDK8/19 inhibition induces premature G1/S transition and ATR-dependent cell death in prostate cancer cells” (Oncotarget, 2018).
Read-outs that look alike come from different tables or passages of the source.

Legend:
Assay in all cases: biochemical
Set-up in all cases: KINOMEscan active site-directed competition binding assay (DiscoveRx), 456 kinases, per cent of control at 300 nM
Settings in all cases: read-out: Percent of Control (%)
EPHA3 = EPHA3 (Homo sapiens, UniProt P29320)
Outline: (§1)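 Active site-directed competition binding (KINOMEscan) across a 456-kinase panel, compounds tested at 300 nmol/L.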

CHEK2 = CHEK2 (Homo sapiens, UniProt O96017)
Outline: as §1

PRKD3 = PRKD3 (Homo sapiens, UniProt O94806)
Outline: as §1

DMPK2 = biological target: T1, DMPK2 (Homo sapiens, UniProt Q6DT37)
T1 construct: gene CDC42BPG
Outline: as §1

BRSK2 = BRSK2 (Homo sapiens, UniProt Q8IWQ3)
Outline: as §1

PIP5K2C = biological target: T2, PIP5K2C (Homo sapiens, UniProt Q8TBX8)
T2 construct: gene PIP4K2C
Outline: as §1

FLT3(ITD) = FLT3(ITD) (Homo sapiens, UniProt P36888, ITD)
Outline: as §1

EPHA2 = EPHA2 (Homo sapiens, UniProt P29317)
Outline: as §1

GRK1 = GRK1 (Homo sapiens, UniProt Q15835)
Outline: as §1

CAMK2D = CAMK2D (Homo sapiens, UniProt Q13557)
Outline: as §1

PYK2 = biological target: T3, PYK2 (Homo sapiens, UniProt Q14289)
T3 construct: gene PTK2B
Outline: as §1

TIE2 = biological target: T4, TIE2 (Homo sapiens, UniProt Q02763)
T4 construct: gene TEK
Outline: as §1

CLK2 = CLK2 (Homo sapiens, UniProt P49760)
Outline: as §1

ALK = ALK (Homo sapiens, UniProt Q9UM73)
Outline: as §1

MET(Y1235D) = MET(Y1235D) (Homo sapiens, UniProt P08581, Y1235D)
Outline: as §1

[1] = biological target: T5, ABL1(Q252H)-nonphosphorylated (Homo sapiens, UniProt P00519, Q252H)
T5 construct: nonphosphorylated
Outline: as §1

GSK3B = GSK3B (Homo sapiens, UniProt P49841)
Outline: as §1

PRKCD = PRKCD (Homo sapiens, UniProt Q05655)
Outline: as §1

PIK3CA(I800L) = PIK3CA(I800L) (Homo sapiens, UniProt P42336, I800L)
Outline: as §1

ASK1 = biological target: T6, ASK1 (Homo sapiens, UniProt Q99683)
T6 construct: gene MAP3K5
Outline: as §1

PIP5K1C = PIP5K1C (Homo sapiens, UniProt O60331)
Outline: as §1

CSF1R = CSF1R (Homo sapiens, UniProt P07333)
Outline: as §1

PIP5K1C, sequence (O60331 whole entry): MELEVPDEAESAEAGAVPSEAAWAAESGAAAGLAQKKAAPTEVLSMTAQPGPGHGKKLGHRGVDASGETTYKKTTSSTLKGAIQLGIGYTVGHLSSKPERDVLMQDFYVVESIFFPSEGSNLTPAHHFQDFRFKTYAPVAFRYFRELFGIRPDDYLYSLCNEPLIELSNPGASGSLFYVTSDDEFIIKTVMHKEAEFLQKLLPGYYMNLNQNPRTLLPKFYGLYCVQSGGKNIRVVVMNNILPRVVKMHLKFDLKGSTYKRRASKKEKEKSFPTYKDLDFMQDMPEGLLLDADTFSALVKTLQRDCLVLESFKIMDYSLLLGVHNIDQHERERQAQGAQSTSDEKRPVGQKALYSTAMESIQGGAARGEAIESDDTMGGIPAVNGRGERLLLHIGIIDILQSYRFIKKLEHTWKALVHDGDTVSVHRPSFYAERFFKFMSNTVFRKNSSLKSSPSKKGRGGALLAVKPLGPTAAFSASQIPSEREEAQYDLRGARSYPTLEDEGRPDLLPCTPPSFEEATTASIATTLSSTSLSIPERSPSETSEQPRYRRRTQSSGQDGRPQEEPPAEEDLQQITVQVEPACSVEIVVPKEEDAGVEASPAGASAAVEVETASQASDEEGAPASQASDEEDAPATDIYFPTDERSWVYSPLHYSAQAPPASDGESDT
EPHA2, sequence (P29317 whole entry): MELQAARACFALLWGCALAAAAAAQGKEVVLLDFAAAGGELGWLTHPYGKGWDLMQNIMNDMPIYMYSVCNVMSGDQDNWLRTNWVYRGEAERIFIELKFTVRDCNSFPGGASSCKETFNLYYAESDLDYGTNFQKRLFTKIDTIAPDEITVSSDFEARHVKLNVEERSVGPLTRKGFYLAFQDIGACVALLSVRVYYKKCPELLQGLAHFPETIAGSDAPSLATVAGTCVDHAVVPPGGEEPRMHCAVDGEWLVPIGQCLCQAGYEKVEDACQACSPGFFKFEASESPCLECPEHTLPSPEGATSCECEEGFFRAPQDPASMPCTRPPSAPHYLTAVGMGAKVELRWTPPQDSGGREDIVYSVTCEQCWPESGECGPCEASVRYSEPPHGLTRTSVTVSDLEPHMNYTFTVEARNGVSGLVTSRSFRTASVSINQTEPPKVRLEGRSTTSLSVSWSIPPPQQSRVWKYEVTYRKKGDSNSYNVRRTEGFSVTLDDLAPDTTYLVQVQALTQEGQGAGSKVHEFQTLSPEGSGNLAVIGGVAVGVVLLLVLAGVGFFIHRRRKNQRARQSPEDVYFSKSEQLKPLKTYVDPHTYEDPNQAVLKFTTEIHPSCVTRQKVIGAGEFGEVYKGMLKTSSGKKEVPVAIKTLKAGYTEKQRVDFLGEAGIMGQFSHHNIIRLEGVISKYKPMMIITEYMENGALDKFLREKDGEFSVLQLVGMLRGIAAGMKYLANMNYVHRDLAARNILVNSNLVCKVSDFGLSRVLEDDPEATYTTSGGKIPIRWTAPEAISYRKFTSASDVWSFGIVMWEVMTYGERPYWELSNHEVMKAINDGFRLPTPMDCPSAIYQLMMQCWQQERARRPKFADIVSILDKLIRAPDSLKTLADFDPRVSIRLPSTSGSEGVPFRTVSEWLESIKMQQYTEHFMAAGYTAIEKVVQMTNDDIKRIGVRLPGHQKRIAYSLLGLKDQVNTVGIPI
CAMK2D, sequence (Q13557 whole entry): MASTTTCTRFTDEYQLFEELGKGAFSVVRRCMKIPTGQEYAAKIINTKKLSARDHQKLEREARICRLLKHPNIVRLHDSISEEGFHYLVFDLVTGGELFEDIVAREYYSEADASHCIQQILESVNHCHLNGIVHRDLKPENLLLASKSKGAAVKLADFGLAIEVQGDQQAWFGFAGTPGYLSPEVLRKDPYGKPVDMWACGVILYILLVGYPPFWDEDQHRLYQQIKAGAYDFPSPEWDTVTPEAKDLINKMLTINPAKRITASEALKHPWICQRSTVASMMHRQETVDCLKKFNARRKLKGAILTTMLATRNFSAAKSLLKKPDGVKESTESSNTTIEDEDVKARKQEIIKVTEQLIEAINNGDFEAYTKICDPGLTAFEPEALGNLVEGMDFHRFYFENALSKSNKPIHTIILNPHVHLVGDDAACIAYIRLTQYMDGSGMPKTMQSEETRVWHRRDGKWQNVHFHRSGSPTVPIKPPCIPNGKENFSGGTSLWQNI
GSK3B, sequence (P49841 whole entry): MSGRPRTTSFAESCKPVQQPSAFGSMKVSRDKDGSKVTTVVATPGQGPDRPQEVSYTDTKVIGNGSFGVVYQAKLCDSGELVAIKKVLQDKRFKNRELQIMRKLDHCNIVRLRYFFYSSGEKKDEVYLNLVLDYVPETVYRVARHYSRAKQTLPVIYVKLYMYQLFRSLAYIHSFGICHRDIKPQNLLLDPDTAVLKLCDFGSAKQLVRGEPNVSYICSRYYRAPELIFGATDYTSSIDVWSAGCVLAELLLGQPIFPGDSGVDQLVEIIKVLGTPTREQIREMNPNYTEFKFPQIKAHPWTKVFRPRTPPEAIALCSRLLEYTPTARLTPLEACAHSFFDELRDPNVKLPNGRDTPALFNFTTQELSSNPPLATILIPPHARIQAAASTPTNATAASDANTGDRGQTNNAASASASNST
T3 sequence (Q14289 whole entry): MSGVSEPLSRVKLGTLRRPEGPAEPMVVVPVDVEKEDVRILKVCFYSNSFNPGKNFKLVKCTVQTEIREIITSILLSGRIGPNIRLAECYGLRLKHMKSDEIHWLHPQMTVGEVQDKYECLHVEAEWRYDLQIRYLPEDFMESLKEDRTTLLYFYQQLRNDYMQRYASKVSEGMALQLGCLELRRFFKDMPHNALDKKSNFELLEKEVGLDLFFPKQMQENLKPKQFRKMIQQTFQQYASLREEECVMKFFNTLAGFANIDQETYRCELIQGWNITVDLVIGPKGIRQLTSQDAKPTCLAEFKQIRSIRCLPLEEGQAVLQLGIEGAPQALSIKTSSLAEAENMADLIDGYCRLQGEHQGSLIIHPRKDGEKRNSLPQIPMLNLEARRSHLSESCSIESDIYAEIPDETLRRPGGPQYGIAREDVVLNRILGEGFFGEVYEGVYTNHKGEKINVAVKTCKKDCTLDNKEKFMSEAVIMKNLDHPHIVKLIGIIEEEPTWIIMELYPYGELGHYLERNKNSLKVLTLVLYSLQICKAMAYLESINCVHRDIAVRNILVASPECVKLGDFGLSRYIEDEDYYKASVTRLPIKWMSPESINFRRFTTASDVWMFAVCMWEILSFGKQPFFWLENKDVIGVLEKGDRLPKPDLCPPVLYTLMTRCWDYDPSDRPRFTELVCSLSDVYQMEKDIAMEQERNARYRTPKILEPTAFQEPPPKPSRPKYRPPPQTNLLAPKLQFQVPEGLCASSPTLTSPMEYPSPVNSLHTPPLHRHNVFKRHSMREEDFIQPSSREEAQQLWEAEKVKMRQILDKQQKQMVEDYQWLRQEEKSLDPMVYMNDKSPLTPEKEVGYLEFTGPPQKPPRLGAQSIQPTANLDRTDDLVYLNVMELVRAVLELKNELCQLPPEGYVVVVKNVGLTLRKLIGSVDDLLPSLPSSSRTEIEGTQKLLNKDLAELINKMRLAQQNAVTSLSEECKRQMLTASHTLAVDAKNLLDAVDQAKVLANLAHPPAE
T2 sequence (Q8TBX8 whole entry): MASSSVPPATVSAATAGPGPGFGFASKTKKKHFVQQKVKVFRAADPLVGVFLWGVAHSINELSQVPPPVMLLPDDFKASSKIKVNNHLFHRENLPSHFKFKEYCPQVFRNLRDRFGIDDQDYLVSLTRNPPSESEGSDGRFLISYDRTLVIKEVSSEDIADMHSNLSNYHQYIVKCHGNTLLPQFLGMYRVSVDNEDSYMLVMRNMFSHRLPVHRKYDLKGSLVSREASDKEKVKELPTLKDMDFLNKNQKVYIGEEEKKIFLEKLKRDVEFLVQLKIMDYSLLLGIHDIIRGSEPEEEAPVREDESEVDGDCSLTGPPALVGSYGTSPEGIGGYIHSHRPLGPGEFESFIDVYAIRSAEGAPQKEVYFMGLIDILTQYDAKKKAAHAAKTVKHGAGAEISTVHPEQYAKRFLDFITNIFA
CHEK2, sequence (O96017 whole entry): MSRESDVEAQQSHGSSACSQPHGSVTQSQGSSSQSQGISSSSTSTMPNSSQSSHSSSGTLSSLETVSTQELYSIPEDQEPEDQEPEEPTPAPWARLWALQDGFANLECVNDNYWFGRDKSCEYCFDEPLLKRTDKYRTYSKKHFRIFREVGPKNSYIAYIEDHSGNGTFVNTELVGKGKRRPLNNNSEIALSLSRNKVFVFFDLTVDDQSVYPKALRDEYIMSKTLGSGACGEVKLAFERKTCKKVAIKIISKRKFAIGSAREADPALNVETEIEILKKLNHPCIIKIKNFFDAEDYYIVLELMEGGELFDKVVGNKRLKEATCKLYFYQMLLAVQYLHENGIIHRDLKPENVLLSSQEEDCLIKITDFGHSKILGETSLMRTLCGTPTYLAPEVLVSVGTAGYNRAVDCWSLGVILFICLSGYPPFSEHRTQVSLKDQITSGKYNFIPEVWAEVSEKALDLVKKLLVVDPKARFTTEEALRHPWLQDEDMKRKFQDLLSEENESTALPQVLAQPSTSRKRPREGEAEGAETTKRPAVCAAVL
CLK2, sequence (P49760 whole entry): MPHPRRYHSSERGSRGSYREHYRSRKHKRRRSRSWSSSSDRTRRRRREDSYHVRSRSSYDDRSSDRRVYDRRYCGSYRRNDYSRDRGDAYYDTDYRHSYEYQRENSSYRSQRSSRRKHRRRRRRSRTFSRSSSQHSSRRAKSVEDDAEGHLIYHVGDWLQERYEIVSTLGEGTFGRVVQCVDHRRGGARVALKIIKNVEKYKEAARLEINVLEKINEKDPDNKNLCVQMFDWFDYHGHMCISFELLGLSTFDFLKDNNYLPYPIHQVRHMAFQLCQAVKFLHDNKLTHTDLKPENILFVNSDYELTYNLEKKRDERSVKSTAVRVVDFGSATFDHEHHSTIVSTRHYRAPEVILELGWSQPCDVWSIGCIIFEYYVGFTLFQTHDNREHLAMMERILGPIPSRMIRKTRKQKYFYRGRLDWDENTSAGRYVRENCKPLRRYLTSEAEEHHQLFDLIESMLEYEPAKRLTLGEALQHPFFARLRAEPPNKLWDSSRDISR

Compound: O=C(/C=C/c1cnccc1-c1ccc(F)cc1)Nc1ccc(CCc2nnco2)cc1 [T-418, (2E)-3-(4-(4-fluorophenyl)pyridin-3-yl)-N-(4-(2-(1,3,4-oxadiazol-2-yl)ethyl)phenyl)acrylamide]
- remaining binding at 0.3 µM (EPHA3; sheet T-418): 100%
- remaining binding at 0.3 µM (CHEK2; sheet T-418): 89%
- remaining binding at 0.3 µM (PRKD3; sheet T-418): 100%
- remaining binding at 0.3 µM (DMPK2; sheet T-418): 71%
- remaining binding at 0.3 µM (BRSK2; sheet T-418): 100%
- remaining binding at 0.3 µM (PIP5K2C; sheet T-418): 74%
- remaining binding at 0.3 µM (FLT3(ITD); sheet T-418): 100%
- remaining binding at 0.3 µM (EPHA2; sheet T-418): 100%
- remaining binding at 0.3 µM (GRK1; sheet T-418): 100%
- remaining binding at 0.3 µM (CAMK2D; sheet T-418): 100%
- remaining binding at 0.3 µM (PYK2; sheet T-418): 88%
- remaining binding at 0.3 µM (TIE2; sheet T-418): 85%
- remaining binding at 0.3 µM (CLK2; sheet T-418): 88%
- remaining binding at 0.3 µM (ALK; sheet T-418): 81%
- remaining binding at 0.3 µM (MET(Y1235D); sheet T-418): 95%
- remaining binding at 0.3 µM ([1]; sheet T-418): 83%
- remaining binding at 0.3 µM (GSK3B; sheet T-418): 98%
- remaining binding at 0.3 µM (PRKCD; sheet T-418): 100%
- remaining binding at 0.3 µM (PIK3CA(I800L); sheet T-418): 51%
- remaining binding at 0.3 µM (ASK1; sheet T-418): 92%
- remaining binding at 0.3 µM (PIP5K1C; sheet T-418): 100%
- remaining binding at 0.3 µM (CSF1R; sheet T-418): 81%

Compound: Cc1ncccc1Oc1sc(C(N)=O)c2c1-c1c(cnn1C)CC2 [T-474, 1-methyl-8-((2-methylpyridin-3-yl)oxy)-4,5-dihydro-1H-thieno[3,4-g]indazole-6-carboxamide]
- remaining binding at 0.3 µM (EPHA3): 100%
- remaining binding at 0.3 µM (CHEK2): 100%
- remaining binding at 0.3 µM (PRKD3): 100%
- remaining binding at 0.3 µM (DMPK2): 87%
- remaining binding at 0.3 µM (BRSK2): 87%
- remaining binding at 0.3 µM (PIP5K2C): 74%
- remaining binding at 0.3 µM (FLT3(ITD)): 100%
- remaining binding at 0.3 µM (EPHA2): 86%
- remaining binding at 0.3 µM (GRK1): 100%
- remaining binding at 0.3 µM (CAMK2D): 100%
- remaining binding at 0.3 µM (PYK2): 100%
- remaining binding at 0.3 µM (TIE2): 99%
- remaining binding at 0.3 µM (CLK2): 46%
- remaining binding at 0.3 µM (ALK): 98%
- remaining binding at 0.3 µM (MET(Y1235D)): 100%
- remaining binding at 0.3 µM [1]: 100%
- remaining binding at 0.3 µM (GSK3B): 94%
- remaining binding at 0.3 µM (PRKCD): 96%
- remaining binding at 0.3 µM (PIK3CA(I800L)): 77%
- remaining binding at 0.3 µM (ASK1): 81%
- remaining binding at 0.3 µM (PIP5K1C): 100%
- remaining binding at 0.3 µM (CSF1R): 100%
